Data published in PubChem BioAssay (NCI).
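Grown in 96-well plates, cells were treated for 48 hours with each compound at five concentrations. Insufficient inhibition: endpoint recorded as highest concentration tested. The concentration for 50% growth inhibition is given as GI50. At the TGI there is no net growth.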

How the values were obtained:
Assay in all cases: NCI-60 cell line screen, 48 h
ACHN renal = test system: ACHN renal
SK-MEL-2 melanoma = test system: SK-MEL-2 melanoma
IGROV1 ovarian = test system: IGROV1 ovarian
HCT-116 colon = test system: HCT-116 colon
NCI-H460 lung = test system: NCI-H460 lung
RPMI-8226 leukemia = test system: RPMI-8226 leukemia
SN12C renal = test system: SN12C renal
CAKI-1 renal = test system: CAKI-1 renal
SNB-75 CNS = test system: SNB-75 CNS
OVCAR-4 ovarian = test system: OVCAR-4 ovarian

Compound | TGI (ACHN renal) [µM] | TGI (SK-MEL-2 melanoma) [µM] | TGI (IGROV1 ovarian) [µM] | TGI (HCT-116 colon) [µM] | TGI (NCI-H460 lung) [µM] | TGI (RPMI-8226 leukemia) [µM] | TGI (SN12C renal) [µM] | GI50 (ACHN renal) [µM] | GI50 (SK-MEL-2 melanoma) [µM] | GI50 (CAKI-1 renal) [µM] | TGI (CAKI-1 renal) [µM] | GI50 (IGROV1 ovarian) [µM] | GI50 (HCT-116 colon) [µM] | GI50 (RPMI-8226 leukemia) [µM] | GI50 (SNB-75 CNS) [µM] | TGI (SNB-75 CNS) [µM] | GI50 (OVCAR-4 ovarian) [µM] | TGI (OVCAR-4 ovarian) [µM] | GI50 (SN12C renal) [µM] | GI50 (NCI-H460 lung) [µM]
CC1=N/C(=C\c2cccc3ccccc23)C(=O)O1 | > 100 | > 100 | > 100 | > 100 | > 100 | > 100 | > 100 |  |  |  |  |  |  |  |  |  |  |  |  | 
COc1cccc2c(Nc3ccc(C(=O)NCCN(C)C)cc3)cc(-c3ccccc3)nc12 | 37.9 | 36.8 | 25.6 | 18.6 |  | 24.4 | 36.4 | 17.6 | 17.9 | 27.8 | 55.3 | 10.8 | 3.88 | 6.11 | 29.5 | 66 | 33 | > 100 | 16.1 | 
CC(C)(C)n1cc(-c2ccnc(NCCNS(=O)(=O)c3cccc4ccccc34)c2)c(-c2cccc(F)c2)n1 | 49 | 57.9 | 64.3 | 19.2 | 56.7 | 44.9 | 29 | 18.9 | 21.4 | 16 | 30.8 | 18.6 | 4.62 | 6.2 |  |  | 14.6 | 53.7 | 13.7 | 20
C=CCNc1cccc2c1C(=O)c1ccccc1C2(O)CC=C (stereo not drawn) | 65.3 | 47.6 | > 100 | 32.3 | > 100 | 44.6 | 43 | 28.5 | 20.7 |  |  | 33.3 | 17.7 | 17.4 | 17 | 45.7 | 26.2 | > 100 | 20.2 | 56
COC(=O)C(=O)C(C#N)c1ccc(Cl)c(Cl)c1 (stereo not drawn) | > 100 | > 100 | > 100 | > 100 |  | > 100 | > 100 |  |  |  | > 100 |  |  |  |  | > 100 |  |  |  | 
O=c1c2cccnc2ncn1CCCN1CCOCC1 | > 100 |  | > 100 | > 100 | > 100 |  | > 100 |  |  |  | > 100 |  |  |  |  | > 100 |  | > 100 |  | 
Cc1cccc(N2C(=O)C(=O)C(c3nc4ccccc4s3)C(=O)C2=O)c1C | > 100 | > 100 | > 100 | > 100 |  | > 100 | > 100 |  |  |  | > 100 |  |  |  |  | > 100 |  | > 100 |  | 
C=C1C(=O)O[C@H]2[C@H]1CC/C(COC(=O)C(=O)c1cn(C)c3ccc(OC)cc13)=C\CC[C@@]1(C)O[C@@H]21 | 7.79 |  | 6.01 | 7.38 | 14.4 | 19.5 | 12.8 | 3.18 |  | 7.25 | 21.8 | 2.27 | 3.61 | 2.34 | 6.69 | 11.8 | 5.2 | 25.5 | 6.1 | 7.2
O=C1CCC(=O)C12CCc1cccc(O)c12 | > 100 |  | > 100 |  | > 100 | > 100 | > 100 |  |  |  | > 100 |  |  |  |  | > 100 |  | > 100 |  | 
Clc1ccc(Nc2nc3ccccc3c3occc23)cc1 | 18.9 | 21.7 | 27.3 | 15.7 | 35.2 | 27.4 | 22.6 | 9.16 | 9.53 | 3.07 | 10.2 | 10.2 | 8.74 | 11.3 |  |  | 8.7 | 19.8 | 10.9 | 13
O=C1CCC2CCOc3ccc(O)c1c32 (stereo not drawn) | > 100 | > 100 | > 100 | > 100 | > 100 | > 100 | > 100 |  |  |  |  |  |  |  |  | > 100 |  | > 100 |  | 
CC1=N/C(=C\c2ccc([N+](=O)[O-])cc2)C(=O)O1 | > 100 | > 100 | > 100 | > 100 | > 100 | > 100 | > 100 |  |  |  |  |  |  |  |  |  |  | > 100 |  | 
CCCCC#Cc1cccc(=O)o1 |  | > 100 | > 100 | 30.4 | > 100 | 49.9 |  |  | 20.8 | > 100 | > 100 | 79.5 | 5.34 | 2.03 |  |  | > 100 | > 100 |  | 36.2
CN(C)CCNC(=O)c1cccc2c1nc(-c1ccccn1)c1ccccc12 | 35.3 | 34 | 66.6 | 23 | 23.2 |  | > 100 |  |  |  | 61.9 |  |  |  |  | 47.1 |  | 42.2 |  | 
Cc1ccc(-n2c(-c3ccc(Cl)cc3)cs/c2=N\NC(=O)COc2n[nH]c(=O)c3ccccc23)cc1 | > 100 | > 100 | > 100 |  | > 100 | > 100 | > 100 | > 100 | > 100 | 25.7 | 72.7 | > 100 |  | > 100 | 20.7 | 65.9 | > 100 | > 100 | 78.1 | > 100
Cc1nn(C)c(=S)n(C)c1=O | 10.2 | 34.8 | 53.2 | 10.8 | > 100 | 14.8 | 43.4 |  |  |  |  |  |  |  |  | 2.73 |  | > 100 |  | 
CCCCCCCCCC(=O)N[C@H]1CCc2cc(OC)c(OC)c(OC)c2-c2ccc(SC)c(=O)cc21 | > 100 |  |  | 0.0586 | 0.306 |  | 19.6 |  |  | 5.27 | > 100 |  |  |  |  |  | 10.8 | > 100 |  | 
COc1ccc2c(c1)C(=O)c1c-2n(CCCCl)c(=O)c2cc(N(C)C)ccc12 | > 100 | > 100 | > 100 | > 100 | > 100 |  | > 100 | 36 | > 100 | 94.6 | > 100 | 33 | 43.9 |  | 21.3 | 69.2 | 62.9 | > 100 | 49.8 | 73
